Where “and” joins values, the source holds several entries; their conditions need not be identical. Equal values may be shown once.
Details: Fluid (supercritical or subcritical phases), Hot wire method

[HH] [hydrogen]
Details	thermal conductivity
423.27 K, 402 kPa	0.2431 W/m/K
473.27 K, 10065 kPa	0.2681 W/m/K and 0.2687 W/m/K
473.27 K, 30123 kPa	0.2799 W/m/K
473.27 K, 30124 kPa	0.28 W/m/K and 0.2803 W/m/K
473.27 K, 70155 kPa	0.3079 W/m/K
473.27 K, 70156 kPa	0.3088 W/m/K
473.27 K, 70160 kPa	0.3069 W/m/K
473.27 K, 97457 kPa	0.3277 W/m/K
473.27 K, 97459 kPa	0.3262 W/m/K
473.27 K, 97460 kPa	0.3282 W/m/K
473.28 K, 407 kPa	0.2609 W/m/K
473.28 K, 408 kPa	0.261 W/m/K
473.28 K, 409 kPa	0.2611 W/m/K
473.28 K, 5166 kPa	0.2673 W/m/K
473.28 K, 5167 kPa	0.267 W/m/K and 0.2671 W/m/K
473.28 K, 10065 kPa	0.2691 W/m/K
473.28 K, 50176 kPa	0.294 W/m/K
473.28 K, 50178 kPa	0.2937 W/m/K
473.28 K, 50179 kPa	0.292 W/m/K
473.29 K, 408 kPa	0.2613 W/m/K
573.26 K, 50202 kPa	0.3283 W/m/K
573.26 K, 50208 kPa	0.3253 W/m/K
573.26 K, 96979 kPa	0.356 W/m/K
573.26 K, 96990 kPa	0.3549 W/m/K
573.26 K, 97001 kPa	0.3548 W/m/K
573.27 K, 5202 kPa	0.3043 W/m/K and 0.3057 W/m/K and 0.3047 W/m/K
573.27 K, 10155 kPa	0.3066 W/m/K and 0.3072 W/m/K
573.27 K, 10156 kPa	0.3066 W/m/K
573.27 K, 30167 kPa	0.3171 W/m/K and 0.3173 W/m/K and 0.3175 W/m/K
573.27 K, 50204 kPa	0.3274 W/m/K
573.27 K, 70099 kPa	0.3376 W/m/K
573.27 K, 70106 kPa	0.3381 W/m/K
573.27 K, 70114 kPa	0.3387 W/m/K
573.28 K, 365 kPa	0.2934 W/m/K
573.28 K, 367 kPa	0.2929 W/m/K
573.28 K, 369 kPa	0.2931 W/m/K
672.87 K, 30056 kPa	0.3514 W/m/K
672.87 K, 30063 kPa	0.3522 W/m/K
672.87 K, 30074 kPa	0.3514 W/m/K
672.87 K, 50096 kPa	0.36 W/m/K
672.87 K, 50118 kPa	0.3625 W/m/K
672.87 K, 98041 kPa	0.3854 W/m/K
672.87 K, 98074 kPa	0.3853 W/m/K
672.87 K, 98109 kPa	0.3873 W/m/K
672.88 K, 5137 kPa	0.342 W/m/K
672.88 K, 5140 kPa	0.344 W/m/K
672.88 K, 5143 kPa	0.3429 W/m/K
672.88 K, 5147 kPa	0.343 W/m/K
672.88 K, 10059 kPa	0.3459 W/m/K
672.88 K, 10060 kPa	0.3456 W/m/K
672.88 K, 10061 kPa	0.3445 W/m/K
672.88 K, 50107 kPa	0.3616 W/m/K
672.88 K, 70012 kPa	0.3693 W/m/K
672.88 K, 70030 kPa	0.3711 W/m/K
672.88 K, 70044 kPa	0.3699 W/m/K
672.89 K, 304 kPa	0.3296 W/m/K and 0.329 W/m/K
672.89 K, 305 kPa	0.329 W/m/K
672.89 K, 306 kPa	0.3287 W/m/K
771.9 K, 29994 kPa	0.3905 W/m/K
771.9 K, 30036 kPa	0.3906 W/m/K
771.9 K, 49904 kPa	0.3973 W/m/K
771.9 K, 49932 kPa	0.3973 W/m/K
771.9 K, 70405 kPa	0.408 W/m/K
771.9 K, 70444 kPa	0.4037 W/m/K
771.9 K, 70484 kPa	0.4065 W/m/K
771.9 K, 98954 kPa	0.4176 W/m/K
771.9 K, 99008 kPa	0.417 W/m/K
771.9 K, 99143 kPa	0.4168 W/m/K
771.9 K, 99205 kPa	0.4188 W/m/K
771.91 K, 5144 kPa	0.3835 W/m/K
771.91 K, 10086 kPa	0.3838 W/m/K
771.91 K, 10092 kPa	0.3825 W/m/K
771.91 K, 10100 kPa	0.3836 W/m/K
771.91 K, 10109 kPa	0.3825 W/m/K
771.91 K, 30014 kPa	0.3888 W/m/K
771.91 K, 30058 kPa	0.39 W/m/K
771.91 K, 49879 kPa	0.3964 W/m/K
771.91 K, 70520 kPa	0.4053 W/m/K
771.92 K, 378 kPa	0.3679 W/m/K
771.92 K, 381 kPa	0.3675 W/m/K
771.92 K, 383 kPa	0.3671 W/m/K
771.92 K, 386 kPa	0.3678 W/m/K
771.92 K, 5136 kPa	0.3832 W/m/K
771.92 K, 5140 kPa	0.3835 W/m/K
